For this experiment, the target named is T1, Phosphorylated rglkA (Staphylococcus aureus, UniProt H6UH58).
T1 construct: gene glcK; recombinant from clone glkA1, nickel-column purified (His tag implied); phosphorylated in vitro by S. aureus rBYK (tyrosine; site not determined)
The experiment is described as follows: coupled glucose-6-phosphate dehydrogenase assay, […] nm; Hanes-Woolf plot. The following applies: ATP, 0.5 mM MgCl2, NADP, 60 mM Tris-HCl pH 7.5, 37 °C; enzyme phosphorylated by BYK. The class given is biochemical.

T1 sequence (H6UH58 entry or part of it): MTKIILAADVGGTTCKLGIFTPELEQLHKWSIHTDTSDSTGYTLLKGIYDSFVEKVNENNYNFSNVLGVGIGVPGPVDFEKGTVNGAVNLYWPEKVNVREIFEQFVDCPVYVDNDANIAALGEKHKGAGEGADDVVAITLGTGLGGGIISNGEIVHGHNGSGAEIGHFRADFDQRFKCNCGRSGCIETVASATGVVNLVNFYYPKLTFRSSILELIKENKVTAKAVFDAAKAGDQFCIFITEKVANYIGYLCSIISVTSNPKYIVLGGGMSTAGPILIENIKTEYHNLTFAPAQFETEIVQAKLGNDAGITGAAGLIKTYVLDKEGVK

Regarding `OC[C@H]1OC(O)[C@H](O)[C@@H](O)[C@@H]1O` (stereo partly shown) [glucose], the Km amounted to 5.18 ± 0.5 mM.

What is called Km is the concentration of substrate that gives half-maximal velocity.
